Experimental data taken from ChEMBL document CHEMBL1142494, “Pharmacophore modeling and molecular docking led to the discovery of inhibitors of human immunodeficiency virus-1 replication targeting the human cellular aspartic acid-glutamic acid-alanine-aspartic acid box polypeptide 3” (J Med Chem, 2008).
Calls of active or inactive are those of the source. The rule behind the calls is not given here.

Key:
[1] = biological target: ATP-dependent RNA helicase DDX3X (Homo sapiens) (UniProt O00571); assay: Inhibition of ATPase activity in human recombinant DDX3 expressed in Escherichia coli by luciferase-based luminescence assay in presence of ATP
Chain of ATP-dependent RNA helicase DDX3X (Homo sapiens) (O00571 2-662 limits assumed): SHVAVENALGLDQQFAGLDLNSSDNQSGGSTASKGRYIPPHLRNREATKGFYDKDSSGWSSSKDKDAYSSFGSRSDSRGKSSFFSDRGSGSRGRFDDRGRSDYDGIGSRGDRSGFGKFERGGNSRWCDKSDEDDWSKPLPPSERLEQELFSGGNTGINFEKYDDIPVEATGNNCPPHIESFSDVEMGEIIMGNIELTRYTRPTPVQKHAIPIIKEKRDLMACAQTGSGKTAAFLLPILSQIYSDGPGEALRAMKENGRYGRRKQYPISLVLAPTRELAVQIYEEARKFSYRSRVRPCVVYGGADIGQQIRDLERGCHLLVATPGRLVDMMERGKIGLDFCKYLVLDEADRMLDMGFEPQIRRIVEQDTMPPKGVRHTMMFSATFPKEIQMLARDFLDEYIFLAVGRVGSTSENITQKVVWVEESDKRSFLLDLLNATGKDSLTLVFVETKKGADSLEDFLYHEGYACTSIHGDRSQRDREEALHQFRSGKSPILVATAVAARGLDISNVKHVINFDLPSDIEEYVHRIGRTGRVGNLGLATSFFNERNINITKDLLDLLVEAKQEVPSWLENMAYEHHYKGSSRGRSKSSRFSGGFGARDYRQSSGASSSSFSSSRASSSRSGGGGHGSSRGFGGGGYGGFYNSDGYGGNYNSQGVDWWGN

[2] = biological target: Polynucleotide kinase (Enterobacteria phage T4) (UniProt P06855); assay: Inhibition of T4 polynucleotide kinase upto 100 uM; conditions: Tequatrovirus T4
Chain of Polynucleotide kinase (Enterobacteria phage T4) (P06855 whole entry): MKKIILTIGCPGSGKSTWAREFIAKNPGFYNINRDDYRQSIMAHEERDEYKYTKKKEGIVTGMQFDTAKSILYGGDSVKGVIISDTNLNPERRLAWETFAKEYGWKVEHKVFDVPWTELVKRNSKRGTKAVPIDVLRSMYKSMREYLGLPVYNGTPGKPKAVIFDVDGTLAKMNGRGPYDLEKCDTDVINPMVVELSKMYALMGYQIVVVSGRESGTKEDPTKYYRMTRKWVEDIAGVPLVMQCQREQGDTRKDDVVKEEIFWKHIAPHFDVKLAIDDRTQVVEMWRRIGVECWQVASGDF

[3] = test system: Hepacivirus hominis; assay: Inhibition of HCV NS3 ATPase/helicase upto 100 uM
[4] = biological target: Proto-oncogene tyrosine-protein kinase Src (Homo sapiens) (UniProt P12931); assay: Inhibition of c-Src upto 100 uM
Chain of Proto-oncogene tyrosine-protein kinase Src (Homo sapiens) (P12931 2-536 limits assumed): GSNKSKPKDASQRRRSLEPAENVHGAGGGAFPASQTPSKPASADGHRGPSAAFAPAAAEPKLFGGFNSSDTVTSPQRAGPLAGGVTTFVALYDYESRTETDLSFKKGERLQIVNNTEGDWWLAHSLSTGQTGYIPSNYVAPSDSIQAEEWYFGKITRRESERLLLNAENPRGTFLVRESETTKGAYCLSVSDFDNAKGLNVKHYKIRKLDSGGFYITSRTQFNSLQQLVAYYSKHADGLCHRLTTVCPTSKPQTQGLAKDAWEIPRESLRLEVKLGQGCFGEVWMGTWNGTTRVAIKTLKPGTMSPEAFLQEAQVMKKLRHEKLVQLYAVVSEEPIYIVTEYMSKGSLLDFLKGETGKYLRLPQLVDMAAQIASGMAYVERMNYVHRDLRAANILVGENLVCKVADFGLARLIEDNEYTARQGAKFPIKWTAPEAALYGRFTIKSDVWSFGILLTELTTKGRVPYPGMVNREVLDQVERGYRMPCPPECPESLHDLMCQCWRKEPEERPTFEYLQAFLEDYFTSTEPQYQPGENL

Activity [1]	SMILES	also measured
inactive	O=C(CCN1C(=O)/C(=C/c2ccccc2Cl)SC1=S)Nc1ccccc1O	
inactive	N#C/C(=C\c1ccc(-c2ccccc2Cl)o1)c1nn(-c2ccccc2)c(N)c1C#N	
inactive	N#C/C(=C\c1ccc(-c2ccc(C(=O)O)cc2)o1)c1n[nH]c(N)c1C#N	
inactive	Cc1ccc(-c2ccc(/C=C(\C#N)c3n[nH]c(N)c3C#N)o2)c([N+](=O)[O-])c1	
inactive	Cc1ccc(/C=C2\SC(=S)N(CCC(=O)Nc3ccccc3O)C2=O)cc1	
inactive	N#C/C(=C\c1ccc(-c2ccccc2[N+](=O)[O-])o1)c1nn(CCO)c(N)c1C#N	

Continued, molecule first:

SMILES	Activity [1]	also measured
Cc1ccc(/C=C2\SC(=S)N(CCC(=O)Nc3cccc(Cl)c3O)C2=O)cc1	inactive	
COc1ccccc1NC(=O)CCN1C(=O)/C(=C/c2cccc(Br)c2)SC1=S	inactive	
O=C(CCN1C(=O)/C(=C/c2ccccc2)SC1=S)Nc1ccccc1O	inactive	
O=C(CN1C(=O)/C(=C/c2cccc(Br)c2)SC1=S)Nc1cccc(O)c1	inactive	
O=C(CCN1C(=O)/C(=C/c2ccccc2)SC1=S)Nc1cccc(O)c1	inactive	
O=C(CCN1C(=O)/C(=C/c2cccc(Br)c2)SC1=S)Nc1ccccc1O		Activity [2]: inactive; Activity [3]: inactive; Activity [4]: inactive
